Laboratory results from patent US20040265917A1, “Methods of measuring the ability of a test compound to inactivate a biological target in cells of a subject” (priority 2003, published 2004).

Assays:
MetAP-2 [1] = molecular target: T1, MetAP-2 (Rattus norvegicus, UniProt P38062); experiment: Phase I pilot free MetAP-2 ELISA (streptavidin beads) in white blood cell lysates after a single dose; assay type: in vivo, female Sprague-Dawley rats; conditions: single 30 mg/kg dose IV, IP, PO or SC; female SD rats; all routes of administration
T1 construct: percentage of free MetAP-2 remaining in white blood cells, liver, spleen, lymph nodes and thymus; from tissue; host or cells: white blood cells, liver, spleen, lymph nodes, thymus of Sprague-Dawley rats
Experimental: MetAP-2 inhibition in white blood cells (WBC) was examined after a single dose (30 mg/kg) of Compound 2 , administered either by intravenous (IV), intraperitoneal (IP), oral gavage (PO) or subcutaneous (SC) routes, to female Sprague-Dawley (SD) rats
A ≧1.0 mL whole blood sample was taken from 3 animals/group/time point (4, 24, 48, 72, 96, and 120 hours post dose) for MetAP-2 analysis. Each animal was bled only once by conscious jugular venipuncture. Blood was immediately placed into EDTA tubes and stored at 4-8° C. Two blood smears from each sample were made for possible differential count analysis.
Blood and tissue samples were collected from SD rats after receiving a single dose of Compound 2. Inhibition of MetAP-2 by Compound 2 was monitored using an ELISA designed to measure the amount of free MetAP-2 in a sample. Cells were lysed and then treated with Compound 1. […] The resulting biotinylated MetAP-2 is captured onto immobilized streptavidin, then detected with an anti-MetAP-2 antibody and an enzyme-linked secondary antibody. Phase I was used as a pilot study to determine if MetAP-2 inhibition could be monitored in female SD rat white blood cell (WBC) lysates after a single 30 mg/kg dose of Compound 2 administered IV, IP, PO or SC. […] Following this analysis it was determined that signal from sample replicates were highly variable and the assay required revision. […]

MetAP-2 [2] = molecular target: T1, MetAP-2; experiment: Free MetAP-2 ELISA (streptavidin plates, Compound 1 capture) in white blood cells and tissues of rats after a single dose, Phase IIa/IIb; assay type: in vivo, Sprague-Dawley rats
Experimental: Determination of Free MetAP-2 in Rat White Blood Cell Lysates and tissues Following Administration of Compound 2
Preparation of WBC Lysates
Spleen Homogenization and Lysis Procedure
Liver, Thymus and Lymph Nodes Homogenization and Lysis Procedure
Treat 20 μL of each lysate dividing into polypropylene 96-well plates: +Compound 2 Samples (Background Controls): Dilute 40 mM Compound 2 stock 1:4000 for a 10 μM working stock and add 2 μL to background samples for a final concentration of 1 μM Compound 2.
Dilute 40 mM Compound 1 stock 1:4000 for a 10 μM working stock and add 2 μL of diluted to the samples and 5 μL to the rMetAP2 standards for a final concentration of 1 μM; cover, tap gently to mix, and incubate for 1 hr at room temperature without shaking.
Remove the streptavidin plates from 4° C. at least 30 min prior to use Dilute each of the samples 1:10 (180 μL into the 20 μL sample) with PBST and mix well.
Transfer 20 μL and 40 μL aliquots of the diluted samples to streptavidin plates, adding to 30 μL and 10 μL of PBST (for total volumes of 50 μL each), and mix well: duplicate aliquots of each volume for the signal samples (signal sample=−Compound 2) and single aliquots of each volume for the background samples (background samples=+Compound 2).
Cover and incubate the plates at room temperature on plate shaker for 1 hr at medium speed.
Wash 3 times manually with 50 μL of 2% (w/v) SDS. Flick plate briskly over sink to remove 2% SDS. Tap on napkin to blot.
Add 50 μL of 1:500 anti-MetAP2 antibody in PBST using 12 channel pipette, so triplicates receive antibody at same time, cover and incubate at room temp. on plate shaker for 1 hr at medium speed. One plate requires 5 mL of PBST plus 10 μL of anti-MetAP2 antibody.
Add 50 μL of 1:5000 goat anti-rabbit-HRP antibody in PBST using the 12 channel pipette, cover and incubate at room temperature on plate shaker for 1 hr at medium speed. One plate requires 5 mL of PBST plus 1 μL anti-rabbit-HRP antibody. Aliquot 50 μL per well.
10 minutes after adding the TMB substrate, add 100 μL of 1 N H2SO4 and then measure the absorbance at 450 nm.
The purpose of this study was to determine the percentage of free MetAP-2 remaining in white blood cells, liver, spleen, lymph nodes and thymus as a pharmacodynamic marker of Compound 2 activity after a single dose was administered to Sprague-Dawley rats.
A repeat examination of MetAP-2 inhibition in WBCs was conducted with various dose levels of Compound 2, administered either IV or PO in female SD rats. In addition, thymus and liver were collected and snap frozen in liquid nitrogen for MetAP-2 analysis.
At 4, 24, 48, 72, 96, 120 hours post dose whole blood (≧3.0 mL) was taken from anesthetized animals (isoflurane inhalation to effect) via cardiac puncture, using a 20 gauge needle. Blood was immediately placed into EDTA tubes and stored at 4-8° C.
After blood collection animals were sacrificed by CO2 inhalation. The entire thymus and left lateral lobe of the liver were minced, placed into separate tissue cassettes, and snap frozen in liquid nitrogen for future MetAP-2 analysis.
To characterize MetAP-2 turnover in tissues after a single oral administration of Compound 2 and to determine if any sex difference existed.
Blood and tissue samples were collected from SD rats after receiving a single dose of Compound 2. Inhibition of MetAP-2 by Compound 2 was monitored using an ELISA designed to measure the amount of free MetAP-2 in a sample. Cells were lysed and then treated with Compound 1. Compound 1 covalently binds to the active site of MetAP-2 molecules that have not already been derivatized by Compound 2. The resulting biotinylated MetAP-2 is captured onto immobilized streptavidin, then detected with an anti-MetAP-2 antibody and an enzyme-linked secondary antibody. Phase I was used as a pilot study to determine if MetAP-2 inhibition could be monitored in female SD rat white blood cell (WBC) lysates after a single 30 mg/kg dose of Compound 2 administered IV, IP, PO or SC. […]

MetAP-2 [3] = molecular target: T2, MetAP-2 (Mus musculus, UniProt O08663); experiment: Free MetAP-2 ELISA in tumor and liver tissue of mice bearing B16F10 murine melanoma tumors; assay type: in vivo, C57BL/6 mice; conditions: 3 or 30 mg/kg PO every other day; samples 24 hours after last dose
T2 construct: from tissue; host or cells: B16F10 murine melanoma tumor and liver of male C57BL/6 mice
Experimental: (§1) Male C57BL/6 mice were divided into six groups of 10 mice each. Each mouse received an implant of 10^6B16F10 murine melanoma cells in 100 μL of PBS above the leg. At day seven following implantation, one group of mice (Group 6) began a regimen of 100 mg/kg Compound 2 every other day, administered oral gavage (PO). At day 13 post implantation, the remaining groups began receiving treatment as follows: Group 1: […] vehicle (11 % hydroxypropyl cyclodextrin) every other day; Group 2: 5-fluorouracil 50 mg/kg in 1% propylene glycol/D5W, PO every other day; Group 3: Compound 2, 3 mg/kg PO every other day; Group 4: Compound 2, 30 mg/kg PO, every other day; Group 5: Compound 2, 100 mg/kg PO, every other day. In each group, the last dose was administered on day 19 post implantation, and blood, spleen, tumor, thymus and liver samples were collected from the mice 24 hours following the last dose.
(§2) The tissue samples were prepared for analysis following the protocols set forth in Example 2 and analyzed for free MetAP-2 using the ELISA protocol of Example 2. The prepared tissue samples were also analyzed for free MetAP-2 activity using the following protocol.
The results of this study are set forth in FIG. 5, which provides a comparison of the results obtained in tumor tissue and liver tissue using the ELISA protocol and those obtained using the gel-shift analysis.

MetAP-2 [4] = molecular target: T2, MetAP-2; experiment: Free MetAP-2 gel shift assay with fluorescent fumagillin analogue (Compound 3) in tumor and liver tissue of mice bearing B16F10 murine melanoma tumors; assay type: in vivo, C57BL/6 mice; conditions: 3 or 30 mg/kg PO every other day; samples 24 hours after last dose
Experimental: as §1, §2
1. Dilute samples in 1.5 mL eppendorf tubes to their desired concentration in lysis buffer in 10 uL volume. See calculations.
2. To each tube, add 1 uL of 10 uM Compound 3stock that has been diluted in lysis buffer.
3. Incubate on ice for 1.0 hours. […]

[5] = Phase IIb, 3 mg/kg PO single dose, 48 hr

T2 sequence (O08663 whole entry): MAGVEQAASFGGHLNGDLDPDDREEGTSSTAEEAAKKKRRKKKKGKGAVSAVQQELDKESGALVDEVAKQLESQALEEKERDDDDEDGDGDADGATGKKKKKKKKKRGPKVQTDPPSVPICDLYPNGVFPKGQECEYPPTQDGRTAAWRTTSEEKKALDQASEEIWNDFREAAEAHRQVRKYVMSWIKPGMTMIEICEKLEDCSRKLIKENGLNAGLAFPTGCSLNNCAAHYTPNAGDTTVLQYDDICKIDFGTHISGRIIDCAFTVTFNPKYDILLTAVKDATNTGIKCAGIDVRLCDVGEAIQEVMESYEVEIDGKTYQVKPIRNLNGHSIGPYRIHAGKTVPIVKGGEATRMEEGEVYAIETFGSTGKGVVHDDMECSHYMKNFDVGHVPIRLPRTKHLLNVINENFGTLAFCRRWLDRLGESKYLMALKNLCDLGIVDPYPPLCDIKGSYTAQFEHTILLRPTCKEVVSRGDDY
T1 sequence (P38062 whole entry): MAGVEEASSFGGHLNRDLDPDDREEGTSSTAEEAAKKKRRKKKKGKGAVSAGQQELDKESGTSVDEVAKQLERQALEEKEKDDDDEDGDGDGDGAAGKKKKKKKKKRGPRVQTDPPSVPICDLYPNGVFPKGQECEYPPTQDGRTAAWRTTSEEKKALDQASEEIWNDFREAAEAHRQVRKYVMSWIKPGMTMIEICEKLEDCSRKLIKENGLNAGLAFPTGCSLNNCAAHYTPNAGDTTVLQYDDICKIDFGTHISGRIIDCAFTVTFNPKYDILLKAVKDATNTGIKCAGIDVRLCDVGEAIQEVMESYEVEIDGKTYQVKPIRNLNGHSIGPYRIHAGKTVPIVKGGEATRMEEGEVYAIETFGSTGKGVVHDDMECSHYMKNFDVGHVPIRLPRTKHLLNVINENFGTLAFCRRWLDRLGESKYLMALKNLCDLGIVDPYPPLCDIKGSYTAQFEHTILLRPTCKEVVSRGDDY

For CO[C@@H]1[C@H](OC(=O)N[C@@H](C(N)=O)C(C)C)CC[C@]2(CO2)[C@H]1[C@@]1(C)O[C@@H]1CC=C(C)C [Compound 2, (1-Carbamoyl-2-methyl-propyl)-carbamic acid-(3R, 4S, 5S, 6R )-5-methoxy-4-[(2R, 3R)-2-methyl-3-(3-methyl-but-2-enyl)-oxiranyl]-1-oxa-spiro[2.5]oct-6-yl ester], the “free MetAP-2 signal in WBC lysates” value (MetAP-2 [1]) was “reduction followed by a recovery”, the “duration of inhibition of MetAP-2 in WBC” value (MetAP-2 [2]; Phase IIa, female SD rats, 30 mg/kg PO versus 0.3 and 3 mg/kg PO, single dose) was “more prolonged inhibition” and the “sex differences in MetAP-2 inhibition” value (MetAP-2 [2]; Phase IIb, male and female SD rats, 0.3 and 3 mg/kg PO, single dose) was “no consistent sex differences”. The “effect on free MetAP-2 levels in tissues other than WBC and liver (spleen, thymus, lymph nodes)” value (MetAP-2 [2]; Phase IIb, 0.3 mg/kg PO, single dose) was “no significant effect”, the “free MetAP-2 level in WBC, average (±SEM)” value (MetAP-2 [2]; [5]) was 13%±4% and the “free MetAP-2 level in liver, average (±SEM)” value (MetAP-2 [2]; [5]) was 13%±5%. For the same compound, the “free MetAP-2 level in lymph nodes, average (±SEM)” value (MetAP-2 [2]; [5]) was 63%±16%, the “free MetAP-2 level in spleen, average (±SEM)” value (MetAP-2 [2]; [5]) was 41%±5% and the “free MetAP-2 level in thymus tissue” value (MetAP-2 [2]; [5]) was “recovered completely”. For the same compound, the “recovery of free MetAP-2 in WBC, 3 mg/kg versus 0.3 mg/kg group” value (MetAP-2 [2]; Phase IIb, single PO dose, by 72 hr) was “recovered to similar free MetAP-2 levels”, the “rank order of responsiveness of organs (MetAP-2 inhibition relative to WBC)” value (MetAP-2 [2]; Phase IIb, single PO dose, tissues plotted relative to WBC) was “liver (most inhibited)>spleen≅lymph nodes>thymus” and the “average free MetAP-2 remaining in tissues when no measurable free MetAP-2 in WBC” value (MetAP-2 [2]; groups with no measurable free MetAP-2 in the WBC) was ≤ 3%. For the same compound, the inhibition at 3 mg/kg (MetAP-2 [2]; rat, Phase IIb, 3 mg/kg PO single dose, four hours after dosing, WBC, liver, spleen, thymus, lymph nodes, read-out: average inhibition of MetAP-2 in all compartments) was ≥ 95%, the “free MetAP-2 levels in liver tissue relative to controls (ELISA)” value (MetAP-2 [3]) was “dose-dependent decrease” and the “free MetAP-2 levels in tumor tissue relative to controls (ELISA)” value (MetAP-2 [3]) was “dose-dependent decrease”. The “free MetAP-2 levels in liver tissue relative to controls (gel shift)” value (MetAP-2 [4]) was “dose-dependent decrease” and the “free MetAP-2 levels in tumor tissue relative to controls (gel shift)” value (MetAP-2 [4]) was “dose-dependent decrease”.
